Assay results taken from patent publication US20020173505A1, “Medicament” (priority 1999, published 2002).

What was measured:
[1] = tested on: human in vitro preparations (airway smooth muscle); assay: spontaneous tone in human in vitro airway preparations; conditions: for nature of the relaxation of spontaneous tone (transient or persistent): human in vitro preparations
Description: (§1) The examinations of the spontaneous tone were performed in accordance with the methods disclosed in the thesis “Regulation of spontaneous tone in guinea pig trachea” by S.Skogvall, Department of Physiological Sci- ences, Lund University, 1999, which is incorporated herein by reference. As evidenced by these examinations, the airways normally display a highly regular type of oscillating tone if exposed to physiological conditions, and the oscillating tone can be reversibly affected by administration of various substances- When the epithelium is removed, the preparations instead display a strong, smooth type of tone.
Similar experiments have also been performed on human in vitro preparations, from patients undergoing lobecotomy or pulmectomy due to lung cancer.
Human airways are generally considered to display only a weak contraction when exposed to S-HT. Nevertheless, examinations on spontaneous tone on human in vitro preparations have shown that 5-HT indeed has a contractile component also in this tissue. However, this contraction takes a longer time to develop than in guinea pig and the contractile effect is seen as a termination of the relaxation, rather than an increase of tone from the baseline. In guinea pig trachea, the contraction reaches a maximum after approximately 10 min, and this is followed by a considerable reduction of tone. However, human preparations instead induce a maximum relaxing effect after 5-10 min, which disappears gradually during the following 30-45 min (see FIG. 1).

[2] = tested on: denuded airway smooth muscle preparations from the guinea-pig; assay: spontaneous tone of denuded guinea-pig airway smooth muscle preparations
Source text: The subject-matter of the present invention was inter alia deduced from animal experiments, where a specific behavior of the airway smooth muscle called “spontaneous tone” was examined. The spontaneous tone, which involves a spontaneous continuous contraction in the airway smooth muscle, was studied due to a suspicion that detective regulation of the spontaneous tone could be an important cause of the bronchoconstriction observed in asthmatic patients.
as §1
A contractile effect of serotonin on airway smooth muscle has been reported in e.g. SkQgvall, S., Korsgren, M-, Grampp, W., J. Appl. Phys., 86:789-798, 1999. […] The spontaneous tone returned to approximately its normal level when the preparations were again exposed to control conditions.

Row | SMILES | nature of the relaxation of spontaneous tone (transient or persistent) ([1]; FIG. 1) | effect on spontaneous tone ([1]; 1 μM, tissue from patients undergoing lobectomy or pulmectomy) | time over which the relaxing effect gradually disappears after the maximum ([1]; human preparations, FIG. 1) | time to maximum relaxing effect ([1]; human preparations, FIG. 1) | average force level of spontaneous tone ([2]; 1 μM added, denuded preparations with strong, smooth spontaneous tone) | spontaneous tone, level relative to force in control (drug-free) conditions ([2]; 10 μM added, denuded preparations) | time to maximum contraction ([2]; guinea pig trachea)
1 | NCCc1c[nH]c2ccc(C(N)=O)cc12 [5-carboxiamidotryptamine, 5-carboxamidotryptamine] | persistent and not transient | – | – | – | – | – | –
2 | COc1cc(N)c(Cl)cc1C(=O)NC[C@@H]1CCN2CCC[C@@H]12 [SC 53116, 4-amino-5-chloro-N-[[lS, 7aS)-hexahydro-1H-pyrrolizin-l-yl]methyll-2-methoxy-benzamide] | persistent and not transient | – | – | – | – | – | –
3 | NCCc1c[nH]c2ccc(O)cc12 [serotonin, 3-(P-aminoethyl)-5-hydroxyindole] | transient relaxation | significant relaxation | 30 to 45 min | 5 to 10 min | increased significantly | about half | approximately 10 min
